Assay results taken from ChEMBL document CHEMBL1201862, “PubChem BioAssay data set” (2004).
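Cultured in 96-well plates, cells were exposed to test compound for 48 hours across five concentrations. GI50 = concentration required for 50% inhibition of growth.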 Activity calls are given as the source filed them. Cut-off read from the data, not from the text of the source: active = GI50 up to about 1.1 µM and inactive = higher.

What was measured:
Experiment in all cases: NCI tumour cell line growth inhibition, 48 h
SF-295 = tested on: SF-295
COLO 205 = tested on: COLO 205
UACC-62 = tested on: UACC-62
MOLT-4 = tested on: MOLT-4
OVCAR-3 = tested on: OVCAR-3
SF-268 = tested on: SF-268
CCRF-CEM = tested on: CCRF-CEM
OVCAR-8 = tested on: OVCAR-8
NCI-H460 = tested on: NCI-H460
A549 = tested on: A549
SK-MEL-28 = tested on: SK-MEL-28
UACC-257 = tested on: UACC-257
SN12C = tested on: SN12C
RPMI-8226 = tested on: RPMI-8226
LOX IMVI = tested on: LOX IMVI
NCI/ADR-RES = tested on: NCI/ADR-RES
HL-60 = tested on: HL-60
MDA-MB-435 = tested on: MDA-MB-435
SK-MEL-2 = tested on: SK-MEL-2
MDA-N = tested on: MDA-N
HCC 2998 = tested on: HCC 2998
HCT-116 = tested on: HCT-116
OVCAR-5 = tested on: OVCAR-5
MDA-MB-231 = tested on: MDA-MB-231
CAKI-1 = tested on: CAKI-1
NCI-H23 = tested on: NCI-H23
SK-OV-3 = tested on: SK-OV-3
U-251 = tested on: U-251
BT-549 = tested on: BT-549
SK-MEL-5 = tested on: SK-MEL-5
DU-145 = tested on: DU-145
PC-3 = tested on: PC-3
HOP-92 = tested on: HOP-92
IGROV-1 = tested on: IGROV-1
KM12 = tested on: KM12
K562 = tested on: K562
RXF 393 = tested on: RXF 393
SR = tested on: SR
EKVX = tested on: EKVX
A498 = tested on: A498
UO-31 = tested on: UO-31
786-0 = tested on: 786-0
HT-29 = tested on: HT-29
SNB-19 = tested on: SNB-19
NCI-H522 = tested on: NCI-H522
OVCAR-4 = tested on: OVCAR-4
M14 = tested on: M14
Malme-3M = tested on: Malme-3M
SF-539 = tested on: SF-539
HCT-15 = tested on: HCT-15
NCI-H226 = tested on: NCI-H226
TK-10 = tested on: TK-10
ACHN = tested on: ACHN
Hs-578T = tested on: Hs-578T
MCF7 = tested on: MCF7
T47D = tested on: T47D
SNB-75 = tested on: SNB-75
SW-620 = tested on: SW-620
HOP-62 = tested on: HOP-62

With `Cc1cccc(-c2cc(O)c3c(C)cc(C)nc3n2)c1` the GI50 (SF-295) was 2720 nM (inactive), the GI50 (COLO 205) was 1040 nM (active) and the GI50 (UACC-62) was 4140 nM (inactive). The GI50 (MOLT-4) was 5060 nM (inactive), the GI50 (OVCAR-3) was 1430 nM (inactive) and the GI50 (SF-268) was 6210 nM (inactive). For the same compound, the GI50 (CCRF-CEM) was 3450 nM (inactive), the GI50 (OVCAR-8) was 5580 nM (inactive) and the GI50 (NCI-H460) was 2950 nM (inactive). The GI50 (A549) was 3660 nM (inactive), the GI50 (SK-MEL-28) was 13100 nM (inactive) and the GI50 (UACC-257) was 7870 nM (inactive). The GI50 (SN12C) was 8910 nM (inactive), the GI50 (RPMI-8226) was 4070 nM (inactive) and the GI50 (LOX IMVI) was 4820 nM (inactive). The GI50 (NCI/ADR-RES) was 1650 nM (inactive), the GI50 (HL-60) was 838 nM (active) and the GI50 (MDA-MB-435) was 321 nM (active). The GI50 (SK-MEL-2) was 2730 nM (inactive), the GI50 (MDA-N) was 313 nM (active) and the GI50 (HCC 2998) was 4900 nM (inactive). The GI50 (HCT-116) was 2040 nM (inactive), the GI50 (OVCAR-5) was 5150 nM (inactive) and the GI50 (MDA-MB-231) was 5700 nM (inactive). For the same compound, the GI50 (CAKI-1) was 5660 nM (inactive), the GI50 (NCI-H23) was 3650 nM (inactive) and the GI50 (SK-OV-3) was 2240 nM (inactive). The GI50 (U-251) was 2790 nM (inactive), the GI50 (BT-549) was 3730 nM (inactive) and the GI50 (SK-MEL-5) was 1050 nM (active). For the same compound, the GI50 (DU-145) was 4320 nM (inactive), the GI50 (PC-3) was 2430 nM (inactive) and the GI50 (HOP-92) was 35400 nM (inactive). For the same compound, the GI50 (IGROV-1) was 4060 nM (inactive), the GI50 (KM12) was 745 nM (active) and the GI50 (K562) was 585 nM (active). The GI50 (RXF 393) was 3410 nM (inactive), the GI50 (SR) was 380 nM (active) and the GI50 (EKVX) was 22000 nM (inactive). The GI50 (A498) was 5710 nM (inactive), the GI50 (UO-31) was 9910 nM (inactive) and the GI50 (786-0) was 4570 nM (inactive). The GI50 (HT-29) was 2120 nM (inactive), the GI50 (SNB-19) was 4380 nM (inactive) and the GI50 (NCI-H522) was 658 nM (active). For the same compound, the GI50 (OVCAR-4) was 4380 nM (inactive), the GI50 (M14) was 2290 nM (inactive) and the GI50 (Malme-3M) was 2310 nM (inactive). The GI50 (SF-539) was 2750 nM (inactive), the GI50 (HCT-15) was 1320 nM and the GI50 (NCI-H226) was 3590 nM (inactive). For the same compound, the GI50 (TK-10) was 16100 nM (inactive), the GI50 (ACHN) was 8300 nM (inactive) and the GI50 (Hs-578T) was 2520 nM (inactive). For the same compound, the GI50 (MCF7) was 962 nM (active), the GI50 (T47D) was 3960 nM (inactive) and the GI50 (SNB-75) was 1990 nM (inactive). For the same compound, the GI50 (SW-620) was 792 nM (active) and the GI50 (HOP-62) was 4520 nM (inactive).

For `C/C(=C\[C@H]1C[C@@H]([C@@H]2CC[C@]34C[C@]23C=C[C@@H]2[C@@]3(C)CC=C5C[C@@H](c6ccccc6)OC[C@]5(C)[C@@H]3C[C@@H](O)[C@]24C)C(=O)O1)CO` [DICHAPETALIN A], the GI50 (SF-295) was 1340 nM (inactive), the GI50 (COLO 205) was 2010 nM (inactive) and the GI50 (UACC-62) was 9020 nM (inactive). For the same compound, the GI50 (MOLT-4) was 1590 nM (inactive), the GI50 (OVCAR-3) was 3520 nM (inactive) and the GI50 (SF-268) was 6750 nM (inactive). For the same compound, the GI50 (CCRF-CEM) was 1040 nM (active), the GI50 (OVCAR-8) was 4910 nM (inactive) and the GI50 (NCI-H460) was 721 nM (active). For the same compound, the GI50 (A549) was 2790 nM (inactive), the GI50 (SK-MEL-28) was 3740 nM (inactive) and the GI50 (UACC-257) was 1960 nM (inactive). For the same compound, the GI50 (SN12C) was 1910 nM (inactive), the GI50 (RPMI-8226) was 624 nM (active) and the GI50 (LOX IMVI) was 1520 nM (inactive). For the same compound, the GI50 (NCI/ADR-RES) was 3080 nM (inactive), the GI50 (HL-60) was 1200 nM (inactive) and the GI50 (MDA-MB-435) was 2480 nM (inactive). The GI50 (SK-MEL-2) was 31400 nM (inactive), the GI50 (MDA-N) was 1710 nM (inactive) and the GI50 (HCC 2998) was 6000 nM (inactive). For the same compound, the GI50 (HCT-116) was 1140 nM (inactive), the GI50 (OVCAR-5) was 9820 nM (inactive) and the GI50 (MDA-MB-231) was 5350 nM (inactive). The GI50 (CAKI-1) was 2080 nM (inactive), the GI50 (NCI-H23) was 1190 nM (inactive) and the GI50 (SK-OV-3) was > 36800 nM (inactive). The GI50 (U-251) was 1040 nM (active), the GI50 (BT-549) was 3780 nM (inactive) and the GI50 (SK-MEL-5) was 286 nM (active). For the same compound, the GI50 (DU-145) was 10200 nM (inactive), the GI50 (PC-3) was 2640 nM (inactive) and the GI50 (HOP-92) was 1950 nM (inactive). For the same compound, the GI50 (IGROV-1) was 2920 nM (inactive), the GI50 (KM12) was 2450 nM (inactive) and the GI50 (K562) was 553 nM (active). For the same compound, the GI50 (RXF 393) was 77800 nM (inactive), the GI50 (SR) was < 10 nM (active) and the GI50 (EKVX) was 1510 nM (inactive). The GI50 (A498) was 437 nM (active), the GI50 (UO-31) was 2480 nM (inactive) and the GI50 (786-0) was 4380 nM (inactive). For the same compound, the GI50 (HT-29) was 2010 nM (inactive), the GI50 (SNB-19) was 11800 nM (inactive) and the GI50 (NCI-H522) was 2880 nM (inactive). The GI50 (OVCAR-4) was 3030 nM (inactive), the GI50 (M14) was 2770 nM (inactive) and the GI50 (Malme-3M) was 3560 nM (inactive). The GI50 (SF-539) was 5080 nM (inactive), the GI50 (HCT-15) was 4380 nM and the GI50 (NCI-H226) was 14900 nM (inactive). The GI50 (TK-10) was 2840 nM (inactive), the GI50 (ACHN) was 3330 nM (inactive) and the GI50 (Hs-578T) was 10900 nM (inactive). The GI50 (MCF7) was 1780 nM (inactive), the GI50 (T47D) was 2840 nM (inactive) and the GI50 (SNB-75) was 3550 nM (inactive). For the same compound, the GI50 (SW-620) was 2720 nM (inactive) and the GI50 (HOP-62) was 10200 nM (inactive).
